# Legend:
# [1] = tested on: sensitive M14 and WM266 melanoma cells; assay: Cell viability / proliferation after transient transfection of miRNAs, with or without a BRAFi; assay type: cell-based, human; conditions: enforced expression by transient transfection, FIG. 12; for effect of BRAFi on cell viability: in the presence of a BRAFi
# Experimental: (§1) Viability of cells was examined with 3-(4,5-dimethylthiazol-2-yl)-2,5-diphenyltetrazolium bromide Cell Titer 96 AQueous One Solution Cell Proliferation Assay (Promega), according to the manufacturer's protocol. The plates were analyzed in a Multilabel Counter (Bio-Rad Laboratories). Cell viability was also determined by crystal violet staining. Briefly, the cells were stained for 20 min at room temperature with staining solution (0.5% crystal violet in 30% methanol), washed four times with water and then dried. Cells were then dissolved in a Methanol/SDS solution and the adsorbance (595 nm) was read using a microplate ELISA reader.
# (§2) Next, the biological consequences of overexpressing or inhibiting the expression of the four selected miRNAs above miR-4443, miR-4488, miR-204-5p and miR-199b-5p were assessed by transient transfections in sensitive M14 and WM266 melanoma cells in the presence or not of a BRAFi in order to evaluate melanoma cell proliferation and apoptosis induction.
# [2] = tested on: sensitive M14 and WM266 melanoma cells; assay: Apoptosis induction measured by Caspase 3/7 activation after transient transfection, with or without a BRAFi; assay type: cell-based, human; conditions: enforced expression by transient transfection, FIG. 13; for BRAFi induction of apoptosis, measured by Caspase 3/7 activation: in the presence of a BRAFi
# Experimental: as §2
# [3] = tested on: drug sensitive and resistant M14 cells; assay: In vitro short term colony formation assay; assay type: cell-based, human; conditions: overexpression in BRAFi drug resistant cells (M14^R); FIG. 15
# Experimental: as §1, with “reader. […]” for “reader.”
# M14^S melanoma cells = assay: Development of BRAFi-resistant colonies under chronic BRAFi exposure; assay type: cell-based, human; conditions: miRNA overexpressed, cells exposed chronically to a BRAFi (1 μM vemurafenib) for 28 days; FIG. 16
# Experimental: FIG. 16 M14^S melanoma cells were transfected with the indicated miRNAs for 72 h and then stained with Crystal violet (day 0). The remaining plates were treated with 1 μM vemurafenib every 48 h and then stained after 7, 14, 21 and 28 days. Data are mean±s.d. from three independent experiments. P<0.05. The pictures shown are representative of three independent experiments.
# Hereafter, the effects of the DOWNMIRNAs on the development of drug resistance in vitro were determined. […] In contrast, growth of control cells transfected with scrambled-miRNA was initially impaired by the presence of a BRAF inhibitor (from 7 to 21 days of drug exposure), but gave rise to resistant colonies at later times (day 28) (FIG. 16).
# A375^DR melanoma cells = assay: Colony formation / growth of cells double resistant to BRAF and MEK inhibitors; assay type: cell-based, human; conditions: miRNAs targeted individually; FIG. 18 left
# Description: Data are mean±s.d. from three independent experiments. P<0.05.
# Human melanoma cell lines M14 (ATCC® HTB-129™) and A375 (ATCC® CRL-1619™) (both V600E) were from American Type Culture Collection (ATCC®). LOX IMVI (V600E) melanoma cell line (EZT-LOXI-1) was from EZ Byosistems™. WM266 melanoma cell line (V600D)(WM266-4-01-0001) was from ROCKLAND™ antibodies & assays. Resistant melanoma cells were selected by treating them for about two months with increasing drug concentrations every two weeks (from 50 nM to 2 μM). A375^DR cells were selected in the presence of both BRAF and MEK inhibitors, as previously done for M14^R, WM266^R, LOX IMVI^R and A375^R. All human melanoma cell lines used in the present work were cultured in RPMI supplemented with 10% (vol/vol) FBS. Human umbilical vein endothelial cells (HUVEC)s, were employed between the third and the seventh passage, were grown in Eagle Basal Medium (EBM) supplemented with 4% FBS, 0.1% gentamicin, 1 μg/mL hydrocortisone, […] and 12 μg/mL bovine brain extract (Cambrex, Bio Science).
# Next, the growth inhibitory effect of simultaneously targeting miRNAs combinations was determined. In detail, for these experiments antagomiRs recognising the UPMIRNAs (amiR-4443: aaaacccacgcctccaa (SEQ ID NO: 10) and amiR-4488: cgccggagcccgccccct (SEQ ID NO: 11)) in different combinations with DOWNMIRNAs mimics (miR-204-5p: […] (SEQ ID NO: 2) and miR-199b-5p […] (SEQ ID NO: 1)) were transiently transfected in melanoma cell lines. […] In addition, the effect of targeting miRNAs individually or in combinations was assessed in a cell line rendered double resistant to both BRAF and MEK inhibitors (called A375^DR). Other investigators have previously reported that double drug resistant melanoma cell lines are more difficult to growth inhibit (5). In fact no growth inhibition was observed effect on A375^DR when the four selected miRNAs were targeted individually (FIG. 18, left panel). […]
# [4] = tested on: human umbilical vein endothelial cells (HUVEC); assay: Endothelial tube formation assay on matrigel; assay type: cell-based
# Experimental: Growth factor reduced Matrigel (10 μL/well) was allowed to polymerize for 1 h on angiogenesis 96 well μ-plates (ibidi, GmbH) at 37° C., 5% CO2. HUVEC (5×10^3 cells/well) suspended in 50 μL of pre-warmed Eagle Basal Medium (CTRL), 10% FBS, or conditioned media from WM266^S, or WM266^R cells, were seeded on matrigel and allowed to form tubes at 37° C. in humidified air with 5% CO2 for 6 h. In order to quantify tube formation, images were acquired and the number of tubes formed by cord-like structures exceeding 100 μm in length were visualized using Axiovision 4.8 software (Carl Zeiss) and counted.
# This finding was of particular interest in the light of the known involvement of VEGF in melanoma progression and resistance to therapy (23). […] Of note, for our results only tube-like structures exceeding 100 μm in length were considered. […] As control, 10% FBS employed as a source of angiogenic growth factors, elicited a considerable response rising to 204% over basal (FIG. 24). […] In order to find a correlation between miRNAs deregulation and […]
# [5] = tested on: VEGFA in WM266^R melanoma cells; assay: Western blot analysis of VEGFA protein levels after miRNA transfection; assay type: cell-based, human; conditions: miRNA overexpressed in WM266^R cells vs Scrambled miRNA; FIG. 26
# Description: FIG. 26 WM266^R melanoma cells transfected with Scrambled miRNA or miR-199b-5p were harvested and subjected to Western blot analysis to detect VEGFA and GAPDH protein levels.
# Antibodies against VEGFA and GAPDH were obtained from Santa Cruz Biotechnology. Vemurafenib and trametinib were obtained from Selleck Chemicals. TaqMan probes for GAPDH, VEGF, BCL2, miR-4443, miR-4488, miR-204-5p, miR-199b-5p, miR-630, miR-1234, is-3676 (previously named miR-3676-3p), miR-145-5p and RNU48 were purchased from Applied Biosystems. Melanoma cells were lysed with RIPA buffer; 50 μg of total protein were resolved under reducing conditions by 8% SDS-PAGE and transferred to reinforced nitrocellulose (BA-S 83, Schleider and Schuell, Keene, N.H., USA). The membranes were blocked with 5% non fat dry milk in PBS 0.1% Tween 20, and incubated with the different primary antibodies. The membranes were rehydrated and probed with anti-GAPDH, to estimate the protein equal loading. Densitometric analysis was performed using Quantity One Program (Bio-Rad Laboratories GmbH) and results were expressed as mean values from three independent experiments.
# VEGF increased expression and release members of miR-199 family were considered (25). […] Therefore, miR-199b-5p was overexpressed in WM266^R cells.
Substance,effect of BRAFi on cell viability [1],"BRAFi induction of apoptosis, measured by Caspase 3/7 activation [2]",A375^DR colony formation / growth inhibition (A375^DR melanoma cells),further results
"miR-199b-5p: miRNA mimic: cccaguguuuagacuaucuguuc (SEQ ID NO:1) (CCCAGUGUUUAGACUAUCUGUUC; listed as RNA, chemistry not given here; listed as Homo sapiens)",potentiates BRAFi activity,potentiates BRAFi activity,not able to affect,"cell proliferation [1]: inhibits cell proliferation; apoptosis (Caspase 3/7 activation) [2]: induces apoptosis; colony formation [3]: strongly impaired colony formation; ability to form BRAFi-resistant colonies (M14^S melanoma cells): completely lost the ability to form BRAFi-resistant colonies; tube formation induced by CM from transfected WM266^R cells ([4]; conditioned medium of WM266^R cells transfected with the miRNA, FIG. 27): lost the capability to induce tube formation; VEGF expression (Western Blot) [5]: able to reduce specifically VEGF expression"
"miR-4488: UPMIRNA, agggggcgggcuccggcg (SEQ ID NO: 11), enforced expression by transient transfection (AGGGGGCGGGCUCCGGCG; listed as RNA, chemistry not given here; listed as Homo sapiens)",decreases the effect of BRAFi,decreases the effect of BRAFi,,
"miR-4443: UPMIRNA, uuggaggcguggguuuu (SEQ ID NO: 10), enforced expression by transient transfection (UUGGAGGCGUGGGUUUU; listed as RNA, chemistry not given here; listed as Homo sapiens)",decreases the effect of BRAFi,decreases the effect of BRAFi,,
Avastin: used to inhibit VEGFR activity; called VEGFR inhibitor [reference compound],,,,"tube formation induced by CM from WM266^R melanoma cells ([4]; addition of VEGFR inhibitor, FIG. 25): significantly inhibited"
"amiR-4488: antagomiR recognising miR-4488: cgccggagcccgccccct (antisense CGCCGGAGCCCGCCCCCT; listed as DNA, chemistry not given here)",,,not able to affect,
"amiR-4443: antagomiR recognising miR-4443: aaaacccacgcctccaa (antisense AAAACCCACGCCTCCAA; listed as DNA, chemistry not given here)",,,not able to affect,

# From patent US11492671B2, “MiRNAs for treatment and in vitro diagnosis of drug resistant tumors” (ISTITUTI FISIOTERAPICI OSPITALIERI, priority 2018, dated 2022)
